Patent US4215143A (Mitsui Toatsu Chemicals, Incorporated, priority 1978, dated 1980)

What was measured:
Gastric Juice Secretion = test: Effect on gastric juice secretion in pylorus-ligated rats; assay type: in vivo, Male rats of the Donryu strain; conditions: 250 mg/kg, p.o.; 4 hours; control 4.9 ± 0.4; * significant vs control at the 5% level
Description: (§1) Male rats of the Donryu strain, 11 weeks of age, were used in groups of ten. After 24 hours of fasting, the pylorus was ligated. Four hours later, the gastric juice was collected and its volume was measured. Then, its acidity was determined by titrating an aliquot of the gastric juice with 0.05 N sodium hydroxide. Further, the activity of pepsin was determined by Anson's method. A definite amount (250 mg/kg) of a compound to be tested was orally administered immediately after the ligation of the pylorus.

Gastric Juice Acidity = test: Effect on gastric juice acidity in pylorus-ligated rats; assay type: in vivo, Male rats of the Donryu strain; conditions: 250 mg/kg, p.o.; 4 hours; control 92.5 ± 3.7; * significant vs control at the 5% level
Description: as §1

pepsin = test: Effect on pepsin activity in pylorus-ligated rats (Anson's method); assay type: in vivo, Male rats of the Donryu strain; conditions: 250 mg/kg, p.o.; 4 hours; control 7.4 ± 0.5; ** significant vs control at the 1% level
Description: as §1

Shay's Ulcer = Shay's Ulcer (pylorus ligation), anti-ulcer effect; assay type: in vivo, Male rats of the Wistar strain; conditions: p.o., 12 hours, vs control group
Description: The anti-ulcer effect of some compounds of this invention was evaluated with regard to various types of experimental gastric and duodenal ulcers. The method of evaluation for each type of ulcer is outlined below. Male rats of the Wistar strain, 7 or 8 weeks of age, were used in groups of ten. After 48 hours of fasting, the pyloric part of the stomach was ligated under ether anesthesia. Immediately after the operation, a certain amount of a compound to be tested was orally administered to each animal of a group. After 12 hours, the degree of ulceration occurring in the anterior part of the stomach was rated and regarded as an ulcer index (U.I.). Control rats were treated in the same manner as described above, except that they received no compounds to be tested. The results given in Table 1 are expressed in terms of the percentage of inhibition based on the U.I. obtained in the control group.

Stress Ulcer = Stress Ulcer (water immersion restraint), anti-ulcer effect; assay type: in vivo, Male rats of the Wistar strain; conditions: 250 mg/kg, p.o.; stress for 16 hours; vs control group
Description: The anti-ulcer effect of some compounds of this invention was evaluated with regard to various types of experimental gastric and duodenal ulcers. The method of evaluation for each type of ulcer is outlined below. Male rats of the Wistar strain, 8 weeks of age, were used in groups of ten. Each animal was immobilized in a stressing cage as developed by Takagi et al., immersed in water at 23° C. to the level of the xiphoid process, and thereby subjected to stress for 16 hours. Thereafter, the stomach was excised. The length of the ulcer formed in the glandular part of the stomach was measured and regarded as an ulcer index (U.I.). A certain amount of a compound to be tested was orally administered just before subjecting the animal to stress. The results are also expressed in terms of the percentage of inhibition based on the U.I. obtained in the control group receiving no compounds to be tested.

Acetic Acid Ulcer = test: Acetic Acid Ulcer, healing promotion effect; assay type: in vivo, Male rats of the Wistar strain; conditions: p.o., twice a day for 7 days
Description: (§2) The anti-ulcer effect of some compounds of this invention was evaluated with regard to various types of experimental gastric and duodenal ulcers. The method of evaluation for each type of ulcer is outlined below.
Male rats of the Wistar strain, 6 weeks of age, were used in groups of ten. Under ether anesthesia, each animal was laparotomized, a round frame (with an inside diameter of 5 mm) made of stainless steel was applied to the anterior wall of the stomach, and 100% acetic acid was poured into the frame. After 30 seconds, the acetic acid was removed and the abdomen was closed. Starting on the 7th day after the operation, a certain amount of a compound to be tested was orally administered twice a day to each animal of a group for a period of 7 days. Thereafter, the degree of healing of the ulcer was rated by visual insepction and regarded as an ulcer index (U.I.). The results are also expressed in terms of the percentage of healing based on the U.I. obtained in the control group receiving no compounds to be tested.

Aspirin Ulcer = test: Aspirin Ulcer, anti-ulcer effect; assay type: in vivo, Male rats of the Donryu strain; conditions: p.o., aspirin 250 mg/kg oral, 6 hours
Description: as §2
Male rats of the Donryu strain, 10 or 11 weeks of age, were used in groups of ten. After 24 hours of fasting, a certain amount of a compound to be tested was orally administered to each animal of a group. Ten minutes later, aspirin was orally administered in a dose of 250 mg/kg. After 6 hours, the size of the ulcer formed in the glandular part of the stomach was rated by visual inspection and regarded as an ulcer index (U.I.). The results are also expressed in terms of the percentage of inhibition based on the U.I. obtained in the control group receiving no compounds to be tested.

Substance | Amount of Gastric Juice Secreted (Gastric Juice Secretion) [mL] | Acidity of Gastric Juice (Gastric Juice Acidity) [mEq/l] | Activity of Pepsin (pepsin) [mg/mL] | percentage of inhibition (ulcer index, Shay's Ulcer) (Shay's Ulcer; 100 mg/kg) [percentage] | percentage of inhibition (ulcer index, Shay's Ulcer) (Shay's Ulcer; 250 mg/kg) [percentage] | percentage of inhibition (ulcer index, Stress Ulcer) (Stress Ulcer) [percentage] | percentage of healing (ulcer index, Acetic Acid Ulcer) (Acetic Acid Ulcer; 100 mg/kg) [percentage] | percentage of healing (ulcer index, Acetic Acid Ulcer) (Acetic Acid Ulcer; 250 mg/kg) [percentage] | percentage of inhibition (ulcer index, Aspirin Ulcer) (Aspirin Ulcer; 100 mg/kg) [percentage] | percentage of inhibition (ulcer index, Aspirin Ulcer) (Aspirin Ulcer; 250 mg/kg) [percentage]
inositol hexasulfate aluminum salt | 3.6 ± 0.4 | 57.8 ± 12.9 | 4.8 ± 0.4 | – | – | – | – | – | – | –
inositol hexasulfate sodium aluminum salt | 3.6 ± 0.4 | 61.1 ± 11.4 | 5.1 ± 0.5 | 87 | 90 | 30 | 23 | 28 | 42 | 49
